Laboratory results reported in patent publication US20240383904A1, “HETEROCYCLIC COMPOUNDS” (Hoffmann-La Roche Inc., priority 2021, published 2024).

Target: T1, MAGL (Homo sapiens, UniProt Q99685)
T1 sequence (Q99685 1-303): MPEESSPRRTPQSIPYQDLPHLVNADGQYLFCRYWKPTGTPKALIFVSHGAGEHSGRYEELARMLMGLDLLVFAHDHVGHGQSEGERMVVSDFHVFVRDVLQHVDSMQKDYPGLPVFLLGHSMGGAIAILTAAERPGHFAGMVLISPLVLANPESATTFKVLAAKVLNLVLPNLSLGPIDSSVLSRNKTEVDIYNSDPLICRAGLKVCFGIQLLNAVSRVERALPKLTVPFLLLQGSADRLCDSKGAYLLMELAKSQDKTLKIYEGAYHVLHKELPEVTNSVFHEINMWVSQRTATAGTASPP
Test: 2-AG assay: MAGL inhibitory activity by hydrolysis of 2-arachidonoylglycerol to arachidonic acid, followed by mass spectrometry
Assay type: biochemical
Conditions: 15 min preincubation, 30 min reaction at RT, 8 μM 2-arachidonoylglycerol

Row | IC50 [nM] | SMILES
1 | 1.68 | O=C1NC2(CO1)CN(C(=O)N1CC3(CCN(Cc4ccc(C(F)(F)F)cn4)CC3)C1)C2 [Example 149, 2-[7-[[5-(trifluoromethyl)-2-pyridyl]methyl]-2,7-diazaspiro[3.5]nonane-2-carbonyl]-7-oxa-2,5-diazaspiro[3.4]octan-6-one]
2 | 140 | O=C1CCC2(CN(C(=O)N3CC4(CCN(Cc5ccc(C(F)(F)F)cn5)C4)C3)C2)N1 [Example 150, 2-[7-[[5-(trifluoromethyl)-2-pyridyl]methyl]-2,7-diazaspiro[3.4]octane-2-carbonyl]-2,5-diazaspiro[3.4]octan-6-one]
3 | 196 | O=C1NC2(CO1)CN(C(=O)N1CC3(CCN(Cc4ccc(C(F)(F)F)nc4)CC3)C1)C2 [Example 151, 2-[7-[[6-(trifluoromethyl)-3-pyridyl]methyl]-2,7-diazaspiro[3.5]nonane-2-carbonyl]-7-oxa-2,5-diazaspiro[3.4]octan-6-one]
4 | 3.07 | O=C1CCC2(CN(C(=O)N3CC4(CCN(Cc5ccc(C(F)(F)F)nc5)C4)C3)C2)N1 [Example 152, 2-[7-[[6-(trifluoromethyl)-3-pyridyl]methyl]-2,7-diazaspiro[3.4]octane-2-carbonyl]-2,5-diazaspiro[3.4]octan-6-one]
5 | 4.75 | O=C1NC2(CO1)CN(C(=O)N1CC3(CN(Cc4cc(F)cc(F)c4)C3)C1)C2 [Example 153, 2-[6-(3,5-difluorobenzyl)-2,6-diazaspiro[3.3]heptane-2-carbonyl]-7-oxa-2,5-diazaspiro[3.4]octan-6-one]
6 | 4.11 | O=C1NC2(CO1)CN(C(=O)N1CC3(CCN(Cc4ccc(C(F)(F)F)cn4)C3)C1)C2 [Example 154, 2-[7-[[5-(trifluoromethyl)-2-pyridyl]methyl]-2,7-diazaspiro[3.4]octane-2-carbonyl]-7-oxa-2,5-diazaspiro[3.4]octan-6-one]
7 | 237 | O=C1CCC2(CN(C(=O)N3CC4(CCN(Cc5cnc(C(F)(F)F)cn5)C4)C3)C2)N1 [Example 155, 2-[7-[[5-(trifluoromethyl)pyrazin-2-yl]methyl]-2,7-diazaspiro[3.4]octane-2-carbonyl]-2,5-diazaspiro[3.4]octan-6-one]
8 | 5.07 | O=C1NC2(CO1)CN(C(=O)N1CC3(CCN(Cc4ccc(C(F)(F)F)nc4)C3)C1)C2 [Example 156, 2-[7-[[6-(trifluoromethyl)-3-pyridyl]methyl]-2,7-diazaspiro[3.4]octane-2-carbonyl]-7-oxa-2,5-diazaspiro[3.4]octan-6-one]
9 | 9.86 | O=C1NC2(CO1)CN(C(=O)N1CC3(CCN(Cc4cnc(C(F)(F)F)cn4)C3)C1)C2 [Example 157, 2-[7-[[5-(trifluoromethyl)pyrazin-2-yl]methyl]-2,7-diazaspiro[3.4]octane-2-carbonyl]-7-oxa-2,5-diazaspiro[3.4]octan-6-one]
10 | 33.9 | O=C1NC2(CO1)CN(C(=O)N1CC3(CCN(Cc4ccc(C(F)(F)F)nn4)C3)C1)C2 [Example 158, 2-[7-[[6-(trifluoromethyl)pyrida-zin-3-yl]methyl]-2,7-diazaspiro[3.4]octane-2-carbonyl]-7-oxa-2,5-diazaspiro[3.4]octan-6-one]
11 | 109 | O=C1NC2(CO1)CN(C(=O)N1CC3(CN(Cc4ccc(C(F)(F)F)nn4)C3)C1)C2 [Example 159, 2-[6-[[6-(trifluoromethyl)pyrida-zin-3-yl]methyl]-2,6-diazaspiro[3.3]heptane-2-carbonyl]-7-oxa-2,5-diazaspiro[3.4]octan-6-one]
12 | 279 | CS(=O)(=O)c1ccc(CN2CCC3(CC2)CN(C(=O)N2CC4(CCC(=O)N4)C2)C3)cc1 [Example 160, 2-[7-(4-mesylbenzyl)-2,7-diazaspiro[3.5]nonane-2-carbonyl]-2,5-diazaspiro[3.4]octan-6-one]
13 | 51.5 | O=C1NC2(CO1)CN(C(=O)N1CC3(CN(Cc4cnc(C(F)(F)F)nc4)C3)C1)C2 [Example 161, 2-[6-[[2-(trifluoromethyl)pyrimi-din-5-yl]methyl]-2,6-diazaspiro[3.3]heptane-2-carbonyl]-7-oxa-2,5-diazaspiro[3.4]octan-6-one]
14 | 15.1 | O=C1NC2(CO1)CN(C(=O)N1CC3(CN(Cc4ncc(F)cc4F)C3)C1)C2 [Example 162, 2-[6-[(3,5-difluoro-2-pyridyl)methyl]-2,6-diazaspiro[3.3]heptane-2-carbonyl]-7-oxa-2,5-diazaspiro[3.4]octan-6-one]
15 | 2.78 | CS(=O)(=O)c1cccc(CN2CCC3(CC2)CN(C(=O)N2CC4(CCC(=O)N4)C2)C3)c1 [Example 163, 2-[7-(3-mesylbenzyl)-2,7-diazaspiro[3.5]nonane-2-carbonyl]-2,5-diazaspiro[3.4]octan-6-one]
16 | 52.5 | CS(=O)(=O)c1ccc(CN2CC3(C2)CN(C(=O)N2CC4(COC(=O)N4)C2)C3)cc1 [Example 164, 2-[6-(4-mesylbenzyl)-2,6-diazaspiro[3.3]heptane-2-carbonyl]-7-oxa-2,5-diazaspiro[3.4]octan-6-one]

Row | IC50 [nM] | SMILES
17 | 0.52 | Cn1ncc(CC2CC3(C2)CN(C(=O)N2CC4(CCC(=O)N4)C2)C3)c1C(F)(F)F [Example 165]
18 | 1.31 | Cn1nc(CC2CC3(C2)CN(C(=O)N2CC4(CCC(=O)N4)C2)C3)cc1C(F)(F)F [Example 166, 2-[6-[[1-methyl-5-(trifluoromethyl)pyrazol-3-yl]methyl]-2-azaspiro[3.3]heptane-2-carbonyl]-2,5-diazaspiro[3.4]octan-6-one]
19 | 1.72 | Cn1ncc(C(F)(F)F)c1CC1CC2(C1)CN(C(=O)N1CC3(CCC(=O)N3)C1)C2 [Example 167, 2-[6-[[2-methyl-4-(trifluoromethyl)pyrazol-3-yl]methyl]-2-azaspiro[3.3]heptane-2-carbonyl]-2,5-diazaspiro[3.4]octan-6-one]
20 | 2.45 | O=C1CCC2(CN(C(=O)N3CC4(CC(Cn5nccc5C(F)(F)F)C4)C3)C2)N1 [Example 168, 2-[6-[[5-(trifluoromethyl)pyrazol-1-yl]methyl]-2-azaspiro[3.3]heptane-2-carbonyl]-2,5-diazaspiro[3.4]octan-6-one]
21 | 2.35 | Cn1cc(CC2CC3(C2)CN(C(=O)N2CC4(CCC(=O)N4)C2)C3)c(C(F)(F)F)n1 [Example 169, 2-[6-[[1-methyl-3-(trifluoromethyl)pyrazol-4-yl]methyl]-2-azaspiro[3.3]heptane-2-carbonyl]-2,5-diazaspiro[3.4]octan-6-one]
22 | 7.82 | O=C1COCC2(CN(C(=O)N3CC4(CC(Cc5ccc(C(F)(F)F)cn5)C4)C3)C2)N1 [Example 170, 2-[6-[[5-(trifluoromethyl)-2-pyridyl]methyl]-2-azaspiro[3.3]heptane-2-carbonyl]-8-oxa-2,5-diazaspiro[3.5]nonan-6-one]
23 | 1.42 | O=C1COCC2(CN(C(=O)N3CC4(CC(Cc5ncc(C(F)(F)F)cc5F)C4)C3)C2)N1 [Example 171, 2-[6-[[3-fluoro-5-(trifluoromethyl)-2-pyridyl]methyl]-2-azaspiro[3.3]heptane-2-carbonyl]-8-oxa-2,5-diazaspiro[3.5]nonan-6-one]
24 | 38.2 | O=C1COCC2(CN(C(=O)N3CC4(CC(Cc5cncc(Cl)c5)C4)C3)C2)N1 [Example 172, 2-[6-[(5-chloro-3-pyridyl)methyl]-2-azaspiro[3.3]heptane-2-carbonyl]-8-oxa-2,5-diazaspiro[3.5]nonan-6-one]
25 | 20.8 | O=C1COCC2(CN(C(=O)N3CC4(CC(Cc5cncc(C(F)(F)F)c5)C4)C3)C2)N1 [Example 173, 2-[6-[[5-(trifluoromethyl)-3-pyridyl]methyl]-2-azaspiro[3.3]heptane-2-carbonyl]-8-oxa-2,5-diazaspiro[3.5]nonan-6-one]
26 | 16.7 | O=C1COCC2(CN(C(=O)N3CC4(CC(Cc5ccc(C(F)(F)F)nc5)C4)C3)C2)N1 [Example 174, 2-[6-[[6-(trifluoromethyl)-3-pyridyl]methyl]-2-azaspiro[3.3]heptane-2-carbonyl]-8-oxa-2,5-diazaspiro[3.5]nonan-6-one]
27 | 1.69 | O=C1CCC2(CN(C(=O)N3CC4(CC(Cc5ncc(Cl)cc5F)C4)C3)C2)N1 [Example 175, 2-[6-[(5-chloro-3-fluoro-2-pyridyl)methyl]-2-azaspiro[3.3]heptane-2-carbonyl]-2,5-diazaspiro[3.4]octan-6-one]
28 | 3 | O=C1COCC2(CN(C(=O)N3CC4(CC(Cc5ncc(F)cc5Cl)C4)C3)C2)N1 [Example 176, 2-[6-[(3-chloro-5-fluoro-2-pyridyl)methyl]-2-azaspiro[3.3]heptane-2-carbonyl]-8-oxa-2,5-diazaspiro[3.5]nonan-6-one]
29 | 2.01 | O=C1COCC2(CN(C(=O)N3CC4(CC(Cc5ccc(OC(F)(F)F)cn5)C4)C3)C2)N1 [Example 177, 2-[6-[[5-(trifluoromethoxy)-2-pyridyl]methyl]-2-azaspiro[3.3]heptane-2-carbonyl]-8-oxa-2,5-diazaspiro[3.5]nonan-6-one]
30 | 15.4 | O=C1COCC2(CN(C(=O)N3CC4(CC(Cc5cc(C(F)(F)F)ccn5)C4)C3)C2)N1 [Example 178, 2-[6-[[4-(trifluoromethyl)-2-pyridyl]methyl]-2-azaspiro[3.3]heptane-2-carbonyl]-8-oxa-2,5-diazaspiro[3.5]nonan-6-one]
31 | 1.66 | O=C1CCC2(CN(C(=O)N3CC4(CC(Cc5ccc(OC(F)(F)F)nc5)C4)C3)C2)N1 [Example 179, 2-[6-[[6-(trifluoromethoxy)-3-pyridyl]methyl]-2-azaspiro[3.3]heptane-2-carbonyl]-2,5-diazaspiro[3.4]octan-6-one]
32 | 202 | O=C1COCC2(CN(C(=O)N3CC4(CC(Cc5cncc(F)c5)C4)C3)C2)N1 [Example 180, 2-[6-[(5-fluoro-3-pyridyl)methyl]-2-azaspiro[3.3]heptane-2-carbonyl]-8-oxa-2,5-diazaspiro[3.5]nonan-6-one]
